In ChEMBL document CHEMBL1201862, “PubChem BioAssay data set” (2004):
Active and inactive are the calls of the source. For most assays here, no stated cut-off is given here; in the data, actives have a measured EC50 and inactives only a lower limit.

Tests used:
[1] = system: Streptococcus sp. 'group A'; assay: growth inhibition of control SK(-) GAS strain, dose response, counter-screen for streptokinase expression inhibitor project, luminescence, kanamycin, BacTiterGlo, confirmation (AID 1900); type: functional, organism-based
[2] = biological target: T1, Streptokinase A (Streptococcus pyogenes serotype M1, UniProt P10520); assay: S. pyogenes streptokinase expression inhibitors, potency, dose response, plasminogen activation absorbance, OD405 (AID 1914); type: functional, Streptococcus pyogenes M1 GAS;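 further: secreted streptokinase activity via plasminogen activation per viability signal from cell pellet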
T1 sequence (P10520 whole entry): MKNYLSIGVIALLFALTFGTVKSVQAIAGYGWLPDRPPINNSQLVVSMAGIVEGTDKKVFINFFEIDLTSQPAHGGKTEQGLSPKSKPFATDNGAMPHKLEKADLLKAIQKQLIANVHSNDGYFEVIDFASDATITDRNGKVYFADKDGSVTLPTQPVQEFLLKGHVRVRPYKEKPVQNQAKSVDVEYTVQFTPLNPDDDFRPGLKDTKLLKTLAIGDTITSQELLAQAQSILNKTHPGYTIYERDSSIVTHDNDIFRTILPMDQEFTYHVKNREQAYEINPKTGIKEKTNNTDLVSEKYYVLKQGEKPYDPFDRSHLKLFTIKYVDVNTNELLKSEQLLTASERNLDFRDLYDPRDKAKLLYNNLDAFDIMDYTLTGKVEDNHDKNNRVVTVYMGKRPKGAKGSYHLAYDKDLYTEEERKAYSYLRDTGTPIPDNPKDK

[3] = system: Streptococcus; assay: Group A Streptococcus viability loss, dose response, counter-screen for streptokinase expression inhibitor project, luminescence, BacTiterGlo (AID 1915); type: functional, organism-based;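 further: potency for reduction of bacterial viability or growth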
[4] = system: Vero; assay: Vero cell cytotoxicity, cytotoxicity control for flavivirus capping enzyme inhibitors (AID 588742); type: functional; conditions: Chlorocebus sabaeus
[5] = system: BJ; assay: cytotoxicity toward BJ-TERT fibroblasts, dose response, cell-based, RAS-independent, luminescence (AID 1933); type: functional; conditions: Homo sapiens
[6] = system: BJ; assay: cells; type: functional, cell-based; conditions: Homo sapiens
[7] = system: BJ; assay: cytotoxicity toward BJ-TERT-LT-ST fibroblasts, dose response, cell-based, RAS-independent, luminescence (AID 1935); type: functional; conditions: Homo sapiens;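 further: BJ fibroblasts immortalized with TERT plus LT and ST oncogenes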
[8] = cytotoxicity toward DRD oncogenic fibroblasts, dose response, cell-based, non-viral oncogenic, luminescence (AID 1934); type: functional; conditions: Homo sapiens
[9] = biological target: T2, Ubiquitin-conjugating enzyme E2 N (Homo sapiens, UniProt P61088); type: functional;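 further: Dose-response confirmation in a TR-FRET assay detecting UBC13-driven polyubiquitin chain formation, inhibition measured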
T2 sequence (P61088 whole entry): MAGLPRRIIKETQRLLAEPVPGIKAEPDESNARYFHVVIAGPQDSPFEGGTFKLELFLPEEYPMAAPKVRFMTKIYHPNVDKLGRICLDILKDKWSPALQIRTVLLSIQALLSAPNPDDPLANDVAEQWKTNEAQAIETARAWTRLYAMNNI

[10] = system: BJ; assay: cytotoxicity toward Ras-transformed BJeLR fibroblasts, dose response, cell-based, alamar blue fluorescence, cherrypicked samples (AID 2631); type: functional; conditions: Homo sapiens;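 further: confirmatory dose-response assay in RAS-dependent BJ fibroblasts engineered with TERT, LT and ST, with cytotoxicity read by fluorescence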
[11] = system: INS1; assay: beta cell apoptosis inhibitors, cytokine rescue, dose response, luminescence, retest (AID 449756); type: functional, cell-based; conditions: Rattus norvegicus;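 further: cell death triggered by IL-1 beta plus TNF-alpha plus IFN-gamma mixture; protective hits raise ATP signal compared with cytokine alone wells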
[12] = biological target: T3, DNA repair protein RAD52 homolog (Homo sapiens, UniProt P43351); type: functional, biochemical
T3 sequence (P43351 whole entry): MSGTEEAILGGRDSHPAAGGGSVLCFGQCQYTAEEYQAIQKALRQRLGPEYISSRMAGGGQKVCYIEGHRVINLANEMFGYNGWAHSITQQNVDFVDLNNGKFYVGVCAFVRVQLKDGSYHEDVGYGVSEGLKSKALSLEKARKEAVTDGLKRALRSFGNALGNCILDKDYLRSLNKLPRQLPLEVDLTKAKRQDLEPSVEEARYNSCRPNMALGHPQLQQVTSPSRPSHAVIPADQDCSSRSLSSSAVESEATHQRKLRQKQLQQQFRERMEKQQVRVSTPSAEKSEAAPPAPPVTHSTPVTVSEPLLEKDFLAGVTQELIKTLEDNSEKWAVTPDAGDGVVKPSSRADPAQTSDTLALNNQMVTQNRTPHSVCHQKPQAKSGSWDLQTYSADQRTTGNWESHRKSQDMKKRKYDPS

[13] = biological target: T4, Apoptotic protease-activating factor 1 (Homo sapiens, UniProt O14727); type: functional
T4 sequence (O14727 whole entry): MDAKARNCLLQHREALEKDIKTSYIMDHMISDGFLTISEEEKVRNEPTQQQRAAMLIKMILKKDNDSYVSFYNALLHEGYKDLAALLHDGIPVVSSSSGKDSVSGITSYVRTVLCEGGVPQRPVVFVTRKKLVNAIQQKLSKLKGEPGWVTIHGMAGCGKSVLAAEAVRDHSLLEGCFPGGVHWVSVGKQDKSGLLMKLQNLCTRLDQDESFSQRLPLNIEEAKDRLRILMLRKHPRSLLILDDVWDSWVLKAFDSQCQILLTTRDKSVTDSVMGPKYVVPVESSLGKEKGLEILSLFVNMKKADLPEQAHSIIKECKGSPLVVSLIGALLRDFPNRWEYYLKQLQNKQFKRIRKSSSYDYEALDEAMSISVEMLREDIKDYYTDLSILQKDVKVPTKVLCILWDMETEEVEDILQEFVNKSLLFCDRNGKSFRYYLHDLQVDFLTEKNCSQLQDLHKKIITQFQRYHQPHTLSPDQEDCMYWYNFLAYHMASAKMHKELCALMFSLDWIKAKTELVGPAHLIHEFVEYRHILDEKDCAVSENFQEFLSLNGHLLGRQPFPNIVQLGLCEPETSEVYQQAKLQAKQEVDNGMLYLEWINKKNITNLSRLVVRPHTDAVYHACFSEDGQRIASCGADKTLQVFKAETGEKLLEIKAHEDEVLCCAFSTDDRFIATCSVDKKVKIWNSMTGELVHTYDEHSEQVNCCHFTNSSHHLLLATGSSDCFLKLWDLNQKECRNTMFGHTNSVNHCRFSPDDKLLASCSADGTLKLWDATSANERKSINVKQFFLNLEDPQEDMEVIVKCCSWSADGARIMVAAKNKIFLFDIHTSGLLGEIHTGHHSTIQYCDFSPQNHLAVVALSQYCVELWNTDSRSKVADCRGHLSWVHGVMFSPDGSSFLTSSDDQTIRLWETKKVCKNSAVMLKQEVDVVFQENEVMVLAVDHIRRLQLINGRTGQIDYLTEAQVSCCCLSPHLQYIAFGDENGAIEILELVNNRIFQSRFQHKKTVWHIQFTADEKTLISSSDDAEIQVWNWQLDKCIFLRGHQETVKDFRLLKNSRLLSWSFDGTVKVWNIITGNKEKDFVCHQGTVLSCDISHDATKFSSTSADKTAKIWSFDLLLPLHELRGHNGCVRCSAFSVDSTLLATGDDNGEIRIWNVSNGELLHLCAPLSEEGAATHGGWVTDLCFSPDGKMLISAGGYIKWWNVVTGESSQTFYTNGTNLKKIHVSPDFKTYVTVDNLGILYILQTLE

[14] = biological target: T5, Replicative DNA helicase DnaB (Mycobacterium tuberculosis, UniProt P9WMR3); assay: DnaB intein splicing inhibitors, dose response, biochemical, cell-free fluorescence (AID 449749); type: functional
T5 sequence (P9WMR3 whole entry): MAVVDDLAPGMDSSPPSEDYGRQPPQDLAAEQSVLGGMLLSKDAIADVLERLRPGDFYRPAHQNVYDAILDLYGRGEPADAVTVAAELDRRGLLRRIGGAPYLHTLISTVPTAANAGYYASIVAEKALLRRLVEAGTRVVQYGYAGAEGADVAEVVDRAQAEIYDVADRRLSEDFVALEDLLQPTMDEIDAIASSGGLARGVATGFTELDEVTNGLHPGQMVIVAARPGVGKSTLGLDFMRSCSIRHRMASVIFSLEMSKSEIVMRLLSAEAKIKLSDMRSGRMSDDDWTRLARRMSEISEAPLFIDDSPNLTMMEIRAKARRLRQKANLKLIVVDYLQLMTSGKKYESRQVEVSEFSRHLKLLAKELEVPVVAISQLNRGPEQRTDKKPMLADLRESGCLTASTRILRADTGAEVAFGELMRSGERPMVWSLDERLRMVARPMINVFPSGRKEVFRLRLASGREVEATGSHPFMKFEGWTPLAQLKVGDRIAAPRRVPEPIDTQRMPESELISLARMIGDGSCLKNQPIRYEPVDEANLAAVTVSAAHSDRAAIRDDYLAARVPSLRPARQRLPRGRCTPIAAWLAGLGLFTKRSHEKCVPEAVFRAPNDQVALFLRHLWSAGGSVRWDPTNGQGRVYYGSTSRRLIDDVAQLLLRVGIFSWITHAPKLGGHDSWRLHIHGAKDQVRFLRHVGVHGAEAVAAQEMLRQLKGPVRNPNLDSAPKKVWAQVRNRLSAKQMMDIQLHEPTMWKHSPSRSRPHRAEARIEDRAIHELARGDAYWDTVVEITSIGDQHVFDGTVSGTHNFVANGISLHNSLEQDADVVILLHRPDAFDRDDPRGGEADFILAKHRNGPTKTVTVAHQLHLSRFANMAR

[15] = biological target: T6, Protein RecA (Mycobacterium tuberculosis, UniProt P9WHJ3); assay: Fluorescence Cell-Free Homogeneous Dose Retest to Identify Inhibitors of RecA-Intein Splicing Activity. [Related pubchem assays (depositor defined):AID2097, AID2223, AID489010, AID492950]; type: functional
T6 sequence (P9WHJ3 whole entry): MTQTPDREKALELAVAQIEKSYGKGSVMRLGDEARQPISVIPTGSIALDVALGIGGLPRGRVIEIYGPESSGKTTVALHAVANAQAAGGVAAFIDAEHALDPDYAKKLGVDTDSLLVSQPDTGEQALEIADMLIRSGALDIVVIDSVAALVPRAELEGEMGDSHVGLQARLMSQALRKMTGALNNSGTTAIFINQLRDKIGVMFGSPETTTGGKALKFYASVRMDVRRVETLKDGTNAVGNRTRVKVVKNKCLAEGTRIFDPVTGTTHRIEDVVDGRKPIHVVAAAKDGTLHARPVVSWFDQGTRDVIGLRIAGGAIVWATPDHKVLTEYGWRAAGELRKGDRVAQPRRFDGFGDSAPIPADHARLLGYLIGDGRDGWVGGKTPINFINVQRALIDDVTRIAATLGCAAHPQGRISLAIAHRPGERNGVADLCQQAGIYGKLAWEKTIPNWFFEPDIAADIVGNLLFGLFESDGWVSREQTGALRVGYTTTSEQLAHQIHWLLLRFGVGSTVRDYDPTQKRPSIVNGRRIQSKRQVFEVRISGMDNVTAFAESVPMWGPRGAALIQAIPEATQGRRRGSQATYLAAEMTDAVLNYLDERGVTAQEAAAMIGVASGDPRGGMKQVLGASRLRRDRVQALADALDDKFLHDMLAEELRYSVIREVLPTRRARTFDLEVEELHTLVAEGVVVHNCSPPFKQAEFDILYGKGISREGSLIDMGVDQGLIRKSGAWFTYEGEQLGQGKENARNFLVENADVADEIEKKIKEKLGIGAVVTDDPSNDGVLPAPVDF

For `COc1ccc(NC(S)=NNc2ccc([N+](=O)[O-])cc2S(=O)(=O)Nc2ccc(C)cc2C)cc1`, the EC50 [1] was 6.57 µM (active), the EC50 [2] was > 150 µM (not active) and the EC50 [3] was 37.7 µM (active). The CC50 [4] was 12.2 µM (active).
In the case of `COc1ccc(C2c3ccc4ccccc4c3Oc3ncn(CCCN(C)C)c(=N)c32)cc1` (stereo unspecified), the EC50 [5] is reported as 5.07 µM (inconclusive), the EC50 [6] is reported as 7.71 µM (active) and the EC50 [7] is reported as 4.18 µM (active). The EC50 [8] was 4.43 µM (active), the IC50 [9] was > 20 µM (inactive) and the EC50 [10] was 2.86 µM (inconclusive). The AC50 [11] was 7.32 µM (active) and the AC50 [12] was 2.33 µM (active).
In the case of `CCCN1C(=O)/C(=C\C=C2/C=CN(CC)c3ccccc32)SC1=S`, the CC50 [4] is reported as > 40 µM (active).
In the case of `CCc1ccc(NC(=S)Nc2cccc3cnccc23)cc1`, the IC50 [13] is reported as 20 µM (active).
For `CCSc1cc(C2C(C#N)=C(N)Oc3[nH]nc(C)c32)c(C)o1` (stereo unspecified), the EC50 [5] was 25.5 µM (active), the EC50 [6] was 17.7 µM (active) and the EC50 [7] was > 150 µM (not active). For the same molecule, the EC50 [8] was 14.7 µM (active), the AC50 [14] was 10.3 µM (active) and the EC50 [10] was 8.45 µM (active). The EC50 [15] was 3.29 µM (active).
